In patent publication US20240285808A1, “MOLECULAR PROBES FOR IN VIVO DETECTION OF ALDEHYDES” (The General Hospital Corporation, priority 2021, published 2024):

Columns and labels:
[1] = system: ECM proteins from fibrotic rat liver; assay: Relaxivity measurements in ECM; format: binding; settings: for relaxivity in ECM: PBS, pH 7.4, 2 h, 37° C., 1.41T; for relaxivity in ECM with 100-fold excess of hydrazine: aldehydes blocked with N2H4
Description: Liver fibrosis was induced in male Sprague Dawley rats by ligation of the common bile duct (CD®, Charles River Labs, Wilmington, MA). Ten days after common bile duct ligation, the fibrotic liver was harvested and sequential extractions were performed using the CNMCS (Cytosol/Nucleus/Membrane/Cytoskeleton) Compartmental Protein Extraction kit (Cytomol, Union City, CA) according to manufacturer's instructions. In brief, frozen tissues (150-200 mg) were homogenized and with solvents provided in the kit to sequentially to remove: cytosolic proteins, nuclear proteins, membrane proteins, and cytoskeletal proteins, leaving a final insoluble fraction enriched for ECM proteins.
Relaxivity Measurements in ECM
The enriched ECM proteins from 800 mg of fibrotic rat liver were suspended in 1 ml PBS. The ECM protein concentration was about 10% (5 mg in a 50 μL aliquot determined by weight after lyophilization). An aliquot of the solution (50 μL) was treated for 2 h at 37° C. with the corresponding molecular probe at a range of concentrations (0.01-0.1 mM) and then longitudinal (T1) relaxation measurements was recorded using a Bruker mq60 Minispec at 1.41 T and 37° C. For the blocking experiment with N2H4, a 100 fold-excess of N2H4 referred to the concentration of molecular probe was added to the solution before the incubation. Longitudinal (T1) relaxation times were measured via an inversion recovery experiment using 10 inversions of duration ranging between 0.05×T1 and 10×T1. Relaxivity (r1) was determined from the slope of a plot of 1/T1 vs metal concentration for 4 concentrations.

[2] = system: liver of bile duct ligated (BDL) rats; assay: MR imaging of liver in bile duct ligated rat liver fibrosis model; format: in vivo; settings: for ΔCNR of liver: 30 min post injection
Description: Rat Liver Fibrosis Model:
Liver fibrosis was induced in male Sprague Dawley rats (n=7) by ligation of the common bile duct (CD®, Charles River Labs, Wilmington, MA). Control animals (n=4) underwent a sham procedure. The BDL and sham rats were imaged 10 days following ligation with a dose of […] of Gd-9 based on body surface area.
T1-mapping was performed with a flow sensitive alternating inversion recovery (FAIR) sequence: repetition time/echo time=11000/33.8 ms; flip angle, 90°; inversion times: 100, 200, 400, 500, 600, 1000, 1500, 2000 ms; field of view, 60×60 mm^2; matrix size, 140×140; slice thickness, 2 mm; acquisition time, 3 minutes 34 seconds. T1 weighted imaging with 3D FLASH: repetition time/echo time=20/2.3 ms; flip angle, 30°; field of view, 60×60 mm^2; matrix size: 127×127; slice thickness, 0.5 mm; acquisition time, 3 minutes 10 seconds. Following the imaging session, animals were sacrificed (30 min p.i.) and liver tissue was subjected to histopathologic analysis.
Longitudinal relaxation rate (R1) maps were generated from the T1 mapping images using a custom written MATLAB (Mathworks, Natick, MA) program for voxel wise fitting of the inversion recovery signal intensities as a function of the inversion time. A region of interest (ROI) was manually traced encompassing the liver parenchyma while avoiding major blood vessels. ΔR1 was calculated by subtracting the R1Pre from R1Post, eq S3. ΔCNR were analyzed from 3D T1 weighted FLASH images, the same as that in mouse.

IRI kidney cortex = assay: MR imaging of kidney ischemia-reperfusion (IRI) model; format: in vivo, mouse; settings: for Change in longitudinal relaxation time (ΔT1): 4 h post injection, n = 11
Description: Kidney Ischemia-Reperfusion (IRI) Model:
Male C57BL/6 mice (10-12 weeks old; Charles River Laboratories) were anesthetized with ketamine/xylazine (100/10 mg/kg; IP). Animals were then placed prone while maintaining rectal temperature strictly at 37° C. with a feedback-regulated heating pad. The skin incision was performed on the left lower flank while adhering to strict aseptic procedures. After accessing the retroperitoneal space, the left kidney, and the left renal artery-vein was identified. Ischemia was induced by applying a micro serrefine clip onto the renal artery and vein. Successful ischemia was visually confirmed by a gradual uniform darkening of the kidney. The clamp was removed 26 minutes later, and a rapid change verified successful reperfusion in kidney color from a dark maroon to a healthy dark pink. The skin was closed using surgical staples, and animals were returned to their home cages. Analgesia was provided by buprenorphine (0.1 mg/kg, SC, bid for three days starting 1 hour before IRI surgery).
Animals were imaged 14 days after IRI and were euthanized after imaging. The right and left kidneys were removed, cortex and medulla regions of each kidney were separated for further analysis.
For kidney imaging, a series of three-dimensional inversion-recovery FLASH images were acquired at baseline and 4 hours after Mn-16 administration with inversion recovery times of 7, 307, 557, 707, 857, 1507, 3007, 5007, and 7007 msec. (TR/TE/FA=5 see/72 msec, field of view (FOV) […], dimension 128×128, slice thickness 0.7 mm).
For kidney imaging analysis, longitudinal relaxation time (T1) was obtained by fitting inversion recovery data to a T1 relaxation equation (M0×(1−2 exp(−TI/T1))) and change in T1 (ΔT1) was calculated by subtracting T1 measured prior to probe injection (T1pre) from T1 measured after injection (T1post), eq 23.

| SMILES | relaxivity in ECM [1] [mM⁻¹ s⁻¹] | relaxivity in ECM with 100-fold excess of hydrazine [1] [mM⁻¹ s⁻¹] | fold higher liver to muscle ΔCNR in BDL rats compared to sham rats ([2]; 30 min) [fold] | fold higher ΔR1 in BDL rats compared to sham rats ([2]; 30 min p.i.) [fold] | ΔCNR of liver ([2]; BDL rats (n = 7)) | change of liver longitudinal relaxation rate ΔR1 ([2]; BDL rats, 30 min p.i.) | ΔCNR of liver ([2]; Sham rats (n = 4)) | ΔR1 ([2]; rat model, in vivo imaging) [s⁻¹] | change of liver longitudinal relaxation rate ΔR1 ([2]; sham rats, 30 min p.i.) | Mn concentration (IRI kidney cortex; IRI kidney cortex) [nmol/g] | Change in longitudinal relaxation time (ΔT1) (IRI kidney cortex; IRI kidney cortex) [ms] | Mn concentration (IRI kidney cortex; contralateral cortex) [nmol/g] | Change in longitudinal relaxation time (ΔT1) (IRI kidney cortex; contralateral cortex) [ms] |
| --- | --- | --- | --- | --- | --- | --- | --- | --- | --- | --- | --- | --- | --- |
| NN1CCN(C(=O)CCC(C(=O)[O-])N2CCN(CC(=O)[O-])CCN(CC(=O)[O-])CCN(C(CCC(=O)N3CCN(N)CC3)C(=O)[O-])CC2)CC1.[Gd+3] (stereo not drawn) [Gd-9, cis-1,4-Gd-(CHyd)2] | 7.8 | 6.6 | 4 | 5 | 3.4±1.6 | 0.6±0.2 | 0.6±0.2 | 0.6 | 0.1±0.03 | – | – | – | – |
| NN1CCN(C(=O)CCC(C(=O)[O-])N2CCN(CC(=O)[O-])CCN(C(CCC(=O)N3CCN(N)CC3)C(=O)[O-])CCN(CC(=O)[O-])CC2)CC1.[Gd+3] (stereo not drawn) [Gd-10, trans-1,7-Gd-(CHyd)2] | 7.2 | 6.7 | – | – | – | – | – | – | – | – | – | – | – |
| NOC(CCC(=O)NCCCN1CCN(CC(=O)[O-])Cc2cccc(n2)CN(CC(=O)[O-])CC1)C(=O)O.[Mn+2] (stereo not drawn) [Mn-16] | – | – | – | – | – | – | – | – | – | 90 | -395 | 60 | -230 |
